Seven compounds from paper PMC9607578, “Chemopreventive Effect on Human Colon Adenocarcinoma Cells of Styrylquinolines: Synthesis, Cytotoxicity, Proapoptotic Effect and Molecular Docking Analysis” (Molecules, 2022) can be followed below.

SMILES strings stand for the structures. Where two headings read alike, the source gives them in different places.

Holding throughout (experiment): Cytotoxic activity, sulforhodamine B (SRB) staining
One assay deals with SW620 cells. The assay is classed as cell-based, human. Particulars: for IC50: Homo sapiens, read-out: SW620 IC50. The procedure:
(§1) For the biological assays, the human colon adenocarcinoma cell line SW480 and its metastatic derivative SW620 were used. Additionally, the nonmalignant cell line HaCaT was used to find the selectivity index of the compounds. All cell lines were obtained by the Colombian Plant Chemistry Group of the Faculty of Exact and Natural Sciences of the University of Antioquia (Medellín, Colombia) from the European Collection of Authenticated Cell Cultures (ECACC, Salisbury, UK). Cells were cultured in a DMEM medium with 4500 mg/L of glucose and L-glutamine (Sigma-Aldrich, Burlington, MA, USA), supplemented with 10% heat-inactivated (56 °C) horse serum (Gibco, Waltham, MA, USA), 1% penicillin/streptomycin (Sigma-Aldrich, Burlington, MA, USA), and 1% non-essential amino acids (Sigma-Aldrich, Burlington, MA, USA). For all experiments, horse serum was reduced to 3%, and the medium was supplemented with […] of transferrin, 5 ng/mL of selenium, and […] of insulin (ITS; Sigma-Aldrich, Burlington, MA, USA). All cell lines were incubated at 37 °C in a 5% CO2 atmosphere. Additionally, cell cultures were constantly monitored with PCR (Sigma-Aldrich, Burlington, MA, USA) for Mycoplasma spp. to control contamination with this agent.
(§2) To evaluate the effect of styrylquinolines on the viability of the SW480, SW620, and HaCaT cell lines, sulforhodamine B (SRB) staining was used. SRB is a colorimetric assay that indirectly estimates the number of living cells based on the ability of SRB to bind to protein components of adherent cells. Briefly, the malignant cell lines were seeded at a final density of 2.0 × 10^4 cells/well, and the nonmalignant cell line was seeded at a final density of 1.5 × 10^4 cells/well in 96-well tissue culture plates. All cell lines were incubated at 37 °C in a 5% CO2 atmosphere for 24 h to enable cell adherence, and they were then treated for 24 and 48 h with increasing concentrations (0.01–160 µM) of the styrylquinolines or their respective precursors (8-hydroxyquinoline and resveratrol), as well as 1% DMSO (negative control) and 5-FU (standard drug). After treatment, cells were fixed with trichloroacetic acid (50% v/v; PanReac AppliChem, Barcelona, Spain) for a period of one hour at 4 °C. After this, the cells were incubated for 30 min at room temperature with 0.4% (w/v) SRB (Sigma-Aldrich, Burlington, MA, USA). To remove unbound SRB, the cells were washed with 1% acetic acid, and the plates were allowed to dry at room temperature. Protein-bound SRB was solubilized with 10 mM Tris-base (Amresco, Cleveland, OH, USA) for 30 min at room temperature under constant agitation, and absorbance was measured at 490 nm in a microplate reader (Bio-Rad iMark^TM, Hercules, CA, USA). Finally, the concentration of the compound that inhibits 50% of cell growth (IC50) and the selectivity index (SI) were determined.

The next assay deals with SW480 cells. It counts as cell-based, human. Particulars: for IC50: Homo sapiens, read-out: SW480 IC50. Here is the method:
as §1, §2

A further assay deals with HaCaT cells. It counts as cell-based. The note with it: Homo sapiens, read-out: HaCaT IC50. The procedure:
as §1, §2

Where [1] appears, read: SW-620, 24 h treatment, mean ± SE.
The mark [2] stands for this setting: SW-620, 48 h treatment, mean ± SE.
The mark [3] stands for this setting: SW480, 24 h treatment, mean ± SE.
The mark [4] stands for this setting: SW480, 48 h treatment, mean ± SE.

`Oc1cccc2cccnc12` [Compound 8-HQ, 8-hydroxyquinoline, reference compound]: the “SI (IC50 HaCaT / IC50 SW620)” value in the assay with SW620 cells (24 h treatment) was 1.6; with SW620 cells (48 h treatment), 1.7. Moreover, the 50% inhibitory concentration (IC50) is 55.3 ± 3.6 µM with SW620 cells (SW-620, 24 h); 36.3 ± 4.8 µM in the assay on SW620 cells (SW-620, 48 h); 89.6 ± 11.8 µM in the assay with SW480 cells (SW480, 24 h); 38.8 ± 3.2 µM in the assay on SW480 cells (SW480, 48 h); 87.1 ± 9.4 µM in the assay with HaCaT cells (24 h); 61.6 ± 4.8 µM with HaCaT cells (48 h). Moreover, the “SI (IC50 HaCaT / IC50 SW480)” value with SW480 cells (24 h treatment) amounted to 1.0; in the assay with SW480 cells (48 h treatment), 1.6.
For the compound `Oc1cccc(/C=C/c2ccc3cccc(O)c3n2)c1O` [Compound 3b], the “SI (IC50 HaCaT / IC50 SW620)” value with SW620 cells (24 h treatment) is on record as 1.2; with SW620 cells (48 h treatment), 3.4. Also, the IC50 was 49.1 ± 4.6 µM with SW620 cells (setting [1]); 9.7 ± 2 µM with SW620 cells (setting [2]); 72.6 ± 11 µM with SW480 cells (setting [3]); 39 ± 3.6 µM in the assay with SW480 cells (setting [4]); 57.2 ± 6.3 µM with HaCaT cells (24 h treatment, mean ± SE); 33.5 ± 4.9 µM in the assay with HaCaT cells (48 h treatment, mean ± SE). Moreover, the “SI (IC50 HaCaT / IC50 SW480)” value was determined as 0.8 in the assay on SW480 cells (24 h treatment) and 0.9 in the assay with SW480 cells (48 h treatment).
Consider `O=c1[nH]cc(F)c(=O)[nH]1` [Compound 5-FU, 5-Fluorouracil, reference compound], for which the “SI (IC50 HaCaT / IC50 SW620)” value in the assay with SW620 cells (48 h treatment) came out at 0.1. The IC50 with SW620 cells (setting [1]) was over 2000 µM; with SW620 cells (setting [2]), 296 ± 39.7 µM; with SW480 cells (setting [3]) it was over 2000 µM; with SW480 cells (setting [4]), 748 ± 158 µM; in the assay on HaCaT cells (24 h treatment, mean ± SE), over 2000 µM; in the assay on HaCaT cells (48 h treatment, mean ± SE), 38.8 ± 7.2 µM. Moreover, the “SI (IC50 HaCaT / IC50 SW480)” value in the assay on SW480 cells (24 h treatment) is 2.0.
As for `Oc1ccc(CCc2ccc3cccc(O)c3n2)cc1` [Compound 4a, 2-(4-hydroxyphenethyl)quinolin-8-ol], the “SI (IC50 HaCaT / IC50 SW620)” value amounted to 1.3 in the assay on SW620 cells (24 h treatment) and 2.4 in the assay with SW620 cells (48 h treatment). Also, the IC50 in the assay on SW620 cells (setting [1]) was 51 ± 5.6 µM; in the assay with SW620 cells (setting [2]) it was 28.9 ± 1.2 µM; with SW480 cells (setting [3]), 117 ± 5.3 µM; in the assay on SW480 cells (setting [4]), 63.2 ± 7.1 µM; with HaCaT cells (24 h treatment, mean ± SE), 65.1 ± 8.4 µM; with HaCaT cells (48 h treatment, mean ± SE), 69.7 ± 3 µM. Moreover, the entries for the “SI (IC50 HaCaT / IC50 SW480)” value in the assay on SW480 cells (24 h treatment) and in the assay on SW480 cells (48 h treatment) were 0.6 and 1.1, respectively.
Take `Oc1ccc(/C=C/c2cc(O)cc(O)c2)cc1` [Resveratrol, resveratrol, reference compound]: the “SI (IC50 HaCaT / IC50 SW620)” value came out at 1.1 in the assay on SW620 cells (24 h treatment) and 0.8 with SW620 cells (48 h treatment). The IC50 in the assay on SW620 cells (setting [1]) amounted to 169 ± 3.9 µM; with SW620 cells (setting [2]), 125 ± 4.6 µM; in the assay with SW480 cells (setting [3]), 217 ± 12.8 µM; in the assay on SW480 cells (setting [4]) it was 136 ± 9.1 µM; in the assay with HaCaT cells (24 h treatment, mean ± SE), 180 ± 7.2 µM; in the assay on HaCaT cells (48 h treatment, mean ± SE) it was 98.2 ± 7 µM. The “SI (IC50 HaCaT / IC50 SW480)” value in the assay with SW480 cells (24 h treatment) is on record as 0.8; in the assay with SW480 cells (48 h treatment) it was 0.7.
With `COc1cc(CCc2ccc3cccc(O)c3n2)ccc1O` [Compound 4b, 2-(4-hydroxy-3-methoxyphenethyl)quinolin-8-ol], the “SI (IC50 HaCaT / IC50 SW620)” value with SW620 cells (24 h treatment) was 1.9; with SW620 cells (48 h treatment), 2.9. Further, the concentration for half-maximal inhibition (IC50) with SW620 cells (setting [1]) turned out to be 58.8 ± 5.5 µM; in the assay on SW620 cells (setting [2]) it was 18.6 ± 2 µM; with SW480 cells (setting [3]), 93.4 ± 16.6 µM; in the assay with SW480 cells (setting [4]), 43.2 ± 2 µM; in the assay on HaCaT cells (24 h treatment, mean ± SE), 109 ± 8.1 µM; in the assay with HaCaT cells (48 h treatment, mean ± SE), 53.6 ± 2.2 µM. Besides, the “SI (IC50 HaCaT / IC50 SW480)” value in the assay on SW480 cells (24 h treatment) and in the assay with SW480 cells (48 h treatment) was 1.2 throughout.
For `Oc1ccc(/C=C/c2ccc3cccc(O)c3n2)c(O)c1` [Compound 3c], the “SI (IC50 HaCaT / IC50 SW620)” value is 1.8 in the assay on SW620 cells (24 h treatment) and 1.9 in the assay with SW620 cells (48 h treatment). The IC50 in the assay with SW620 cells (setting [1]) turned out to be 62 ± 4 µM; in the assay on SW620 cells (setting [2]) it was 20.7 ± 3.1 µM; in the assay on SW480 cells (setting [3]), 37.1 ± 3.8 µM; in the assay on SW480 cells (setting [4]) it was 38.4 ± 3.8 µM; in the assay with HaCaT cells (24 h treatment, mean ± SE), 110 ± 12.7 µM; in the assay with HaCaT cells (48 h treatment, mean ± SE), 38.4 ± 6.2 µM. Moreover, the entries for the “SI (IC50 HaCaT / IC50 SW480)” value with SW480 cells (24 h treatment) and in the assay on SW480 cells (48 h treatment) were 3.0 and 1.0, respectively.
